Experimental data reported in patent publication US20030044497A1, “Process to treat fish with tasteless smoke or carbon monoxide through the respiratory and circulatory systems” (priority 2001, published 2003).

How the values were obtained:
[1] = CO gill absorption formula calculation for tuna; details: yellowfin tuna, hemoglobin 11-12 grams/deciliter x 1.39
Procedure: Hemoglobin CO capacity is 1.39 multiplied times the hemoglobin concentration in the blood which gives ml of CO per gram of Hb per deciliter of blood. For example, from the cardiorespiratory table above the hemoglobin concentration of yellowfin tuna is 11-12 grams/deciliter and when multiplied by 1.39 the result is 15.3-16.7 ml CO/deciliter of blood as the COHb capacity of yellowfin.
Maximum saturation time is a function of the gill absorption rate and reaching saturation equilibrium within the fish blood and the fish tissue. This absorption rate has two components, the CO bound to the Hb and the free CO diffused through the gills directly into the blood plasma. It can be computed by the following relationship:
CO gill absorption=(cardiac output*(Hb*1.39*%sat)*wt)+((cardiac output*(0.029*PCO)/100)*wt)
Cardiac output is in ml blood/min/kg; Hb is blood hemoglobin in grams/ml (Hb is divided by 100 to convert dl to ml; wt is fish weight in kg; 0.0029 is the solubility of CO in mlCO/dl; PCO is the partial pressure of CO in mmHg (0.0029*PCO) is divided by 100 to convert dl to ml.
From the cardiorespiratory function table above, we assume a yellowfin tuna with wt=1 kg; Hb=0.11 gm/ml; cardiac output=115 ml/min/kg; %sat=100%; and PCO=228 mmHg which is the partial pressure of tasteless smoke comprised of 30% CO. […]

[2] = Increase of CO concentration in treated flesh; details: treated fish flesh or other meats
Procedure: However, when natural fish flesh or other meats are treated with carbon monoxide the concentrations in the flesh can increase incrementally from approximately 1.1 to 20 times and on occasion to as much as 80 times. These observed and measured increases in carbon monoxide in the flesh are dependent upon several factors including the quantity of myoglobin in the fish and other meats, carbon monoxide concentration, time, and method of exposure.

[3] = 24 degrees Centigrade, one atmosphere, 20% reduction for seawater medium
Text: The volume of gas, vo, (in milliliters STPD) dissolved in one liter of water at one atmosphere pressure (760 mm Hg) is expressed by the following formula:
vo=absorption coefficient×(V×Po)
where V is the volume of the solvent, and Po is the partial pressure of the gas in atmospheres. Therefore, the amount of gas dissolved is dependent upon its partial pressure in a linear relationship.
The coefficient of solubility is defined as the volume of the gas taken up by a unit volume of the solvent under a particular set of temperature and pressure conditions. If v is the volume of the dissolved gas, measured at temperature T and partial pressure Pg atm, with To equal to 0 degrees Centigrade, then:

[4] = liquid water or blood plasma; cited from earlier work
hemoglobin = details: cited from earlier work
Humans = details: cited from earlier work

Structure (SMILES)	COHb capacity of blood [1]	increase of CO concentration in the flesh over natural, on occasion [2]	maximum solubility [3]	solubility constant [4]	P50 partial pressure at which half the hemoglobin is saturated (hemoglobin)	COHb level at which rapid death occurs (Humans)	half-life (time for a 50% COHb reduction in the blood) (Humans)
[C-]#[O+] [CO, carbon monoxide]	15.3-16.7 ml CO/deciliter of blood	≤ 80 times	17.63 ml CO per liter H2O	0.029 mlCO/liter H2O/mmHgCO	0.4 mmHg	exceed 80%	5 h
O=O [O2, oxygen, reference compound]				0.030 ml O2/liter H2O/mm1Hg O2			
